We go through seven compounds from patent US8846669B2, “Oxazolidinone derivative and medical composition containing same” (Legochem Biosciences, Inc., priority 2011, dated 2014).

Holding throughout (experiment): In vitro antibacterial activity, broth microdilution MIC90
What all share (assay type): cell-based

Assay [1] relates to Methicillin Resistant Staphylococcus aureus. To be noted: Staphylococcus aureus. As to the method: (§1) MIC90 was measured by broth microdilution method based on CLSI standards [reference: Clinical and Laboratory Standards Institute Document. (2000) Methods for Dilution Antimicrobial Susceptibility Test for Bacteria that Grow Aerobically-Fifth Edition: M7-A5. CLSI, Villanova, Pa.].
(§2) Activities of 12 strains including Staphylococcus aureus, Methicillin Resistant Staphylococcus aureus, Staphylococcus epidermidis, Methicillin Resistant Staphylococcus epidermidis, Enterococcus faecalis, Vancomycin Resistant Enterococcus faecalis, Linezolid and Vancomycin Resistant Enterococcus faecalis, Enterococcus faecium, Vancomycin Resistant Enterococcus faecium, Linezolid and Vancomycin Resistant Enterococcus faecium, and Moraxella catarrhalis, were measured, and results are shown in Table 1 below.
(§3) The final concentration of test material in the antibacterial test was from 0.063 μg/mL (minimum) to 128 μg/mL (maximum), and the final concentration of DMSO used as an excipient was 2.5% (V/V). Linezolid represented by Formula B below (manufactured by Pfizer) was used as a control and bacterial activity thereof was compared with those of the test materials.

Assay [2] has as its system Linezolid and Vancomycin Resistant Enterococcus faecalis. To be noted: Enterococcus faecalis. The method, then: as §1, §2, §3
In assay [3] the test system is Linezolid and Vancomycin Resistant Enterococcus faecium (strain 10). To be noted: Enterococcus faecium. As to the method: as §1, §2, §3
In the next assay the test system is Staphylococcus aureus. To be noted: Staphylococcus aureus. As to the method: as §1, §2, §3
The subject of assay [4] is Vancomycin Resistant Enterococcus faecium. To be noted: Enterococcus faecium. The method, then:
as §1, §2, §3

Assay [5] deals with Staphylococcus epidermidis. To be noted: Staphylococcus epidermidis. The method, then: as §1, §2, §3
The next assay concerns Enterococcus faecium. To be noted: Enterococcus faecium. As to the method: as §1, §2, §3
Assay [6] has as its system Vancomycin Resistant Enterococcus faecalis. To be noted: Enterococcus faecalis. As to the method:
as §1, §2, §3

Assay [7] relates to Methicillin Resistant Staphylococcus epidermidis. To be noted: Staphylococcus epidermidis. The method, then: as §1, §2, §3
For a further assay, the system named is Moraxella catarrhalis. To be noted: Moraxella catarrhalis. The method, then: as §1, §2, §3
A further assay concerns Enterococcus faecalis. To be noted: Enterococcus faecalis. The method, then:
as §1, §2, §3

For assay [8], the system named is Linezolid and Vancomycin Resistant Enterococcus faecium (strain 11). To be noted: Enterococcus faecium. The method, then: as §1, §2, §3

≈ marks a conversion by molar mass, not a printed value. Where two headings read alike, the source gives them in different places.

As a reminder, the MIC90 is the lowest concentration that inhibits either 90% of growth or 90% of the strains tested, depending on the study.

Consider `NCC(=O)N1CCN(c2ccc(-c3ccc(N4C[C@H](Cn5ccnn5)OC4=O)cc3F)cn2)C=N1` [Compound 38], for which the MIC90 in [1] turned out to be 0.5 µg/mL (≈ 1.04 µM); in [2], 4 µg/mL (≈ 8.34 µM); in assay [3], 4 µg/mL (≈ 8.34 µM); in the assay with Staphylococcus aureus it was 0.125 µg/mL (≈ 0.261 µM); in assay [4] it was 0.5 µg/mL (≈ 1.04 µM); in [5] it was 0.5 µg/mL (≈ 1.04 µM). Moreover, the MIC90 with Enterococcus faecium was 0.25 µg/mL (≈ 0.521 µM); in [6], 0.5 µg/mL (≈ 1.04 µM); in assay [7], 0.5 µg/mL (≈ 1.04 µM); in the assay on Moraxella catarrhalis, 2 µg/mL (≈ 4.17 µM); in the assay on Enterococcus faecalis, 0.25 µg/mL (≈ 0.521 µM); in assay [8], 4 µg/mL (≈ 8.34 µM).
Consider `CNC(=O)N1CCN(c2ccc(-c3ccc(N4C[C@H](CNC(C)=O)OC4=O)cc3F)cn2)C=N1` [Compound 16], for which the MIC90 came to 1 µg/mL (≈ 2.13 µM) in assay [1]; 1 µg/mL (≈ 2.13 µM) in assay [2]; 2 µg/mL (≈ 4.26 µM) in assay [3]; 0.25 µg/mL (≈ 0.533 µM) with Staphylococcus aureus; 0.5 µg/mL (≈ 1.07 µM) in assay [4]; 0.25 µg/mL (≈ 0.533 µM) in assay [5]. The MIC90 against Enterococcus faecium was 0.5 µg/mL (≈ 1.07 µM); in assay [6] it was 0.5 µg/mL (≈ 1.07 µM); in [7] it was 1 µg/mL (≈ 2.13 µM); against Moraxella catarrhalis, 2 µg/mL (≈ 4.26 µM); against Enterococcus faecalis, 0.25 µg/mL (≈ 0.533 µM); in assay [8] it was 2 µg/mL (≈ 4.26 µM).
`CCOC(=O)CN1CCN(c2ccc(-c3ccc(N4C[C@H](CNC(C)=O)OC4=O)cc3F)cn2)C=N1` [Compound 5]: the MIC90 in assay [1] turned out to be 1 µg/mL (≈ 2.01 µM); in [2], 2 µg/mL (≈ 4.01 µM); in assay [3], 2 µg/mL (≈ 4.01 µM); against Staphylococcus aureus, 0.5 µg/mL (≈ 1 µM); in [4], 0.5 µg/mL (≈ 1 µM); in assay [5], 0.5 µg/mL (≈ 1 µM). The MIC90 in the assay with Enterococcus faecium is 0.5 µg/mL (≈ 1 µM); in assay [6], 0.5 µg/mL (≈ 1 µM); in assay [7], 1 µg/mL (≈ 2.01 µM); with Enterococcus faecalis it was 0.5 µg/mL (≈ 1 µM); in [8], 2 µg/mL (≈ 4.01 µM).
Take `CC(=O)NC[C@H]1CN(c2ccc(-c3ccc(N4C=NN(CC(=O)OC(C)(C)C)CC4)nc3)c(F)c2)C(=O)O1` [Compound 9]: the MIC90 in assay [1] was 4 µg/mL (≈ 7.6 µM); in [2], 8 µg/mL (≈ 15.2 µM); in [3] it was 8 µg/mL (≈ 15.2 µM); against Staphylococcus aureus it was 1 µg/mL (≈ 1.9 µM); in [4], 2 µg/mL (≈ 3.8 µM); in [5] it was 1 µg/mL (≈ 1.9 µM). In addition, the MIC90 against Enterococcus faecium came to 2 µg/mL (≈ 3.8 µM); in assay [6] it was 2 µg/mL (≈ 3.8 µM); in assay [7] it was 4 µg/mL (≈ 7.6 µM); against Enterococcus faecalis, 1 µg/mL (≈ 1.9 µM); in assay [8] it was 8 µg/mL (≈ 15.2 µM).
As to `CC(=O)NC[C@H]1CN(c2ccc(-c3ccc(N4C=NN(CC(=O)O)CC4)nc3)c(F)c2)C(=O)O1` [Compound 10], the MIC90 came to 2 µg/mL (≈ 4.25 µM) in assay [1]; 8 µg/mL (≈ 17 µM) in assay [2]; 8 µg/mL (≈ 17 µM) in assay [3]; 1 µg/mL (≈ 2.13 µM) against Staphylococcus aureus; 2 µg/mL (≈ 4.25 µM) in assay [4]; 1 µg/mL (≈ 2.13 µM) in [5]. The MIC90 against Enterococcus faecium was 1 µg/mL (≈ 2.13 µM); in [6], 2 µg/mL (≈ 4.25 µM); in [7], 2 µg/mL (≈ 4.25 µM); in the assay on Enterococcus faecalis it was 1 µg/mL (≈ 2.13 µM); in assay [8], 8 µg/mL (≈ 17 µM).
For the compound `CC(=O)NC[C@H]1CN(c2ccc(-c3ccc(N4C=NN(CCO)CC4)nc3)c(F)c2)C(=O)O1` [Compound 6], the MIC90 in [1] (strain 2, S. aureus MR, read-out: MIC90) was found to be 1 µg/mL (≈ 2.19 µM); in [2] (strain 7, E. faecalis VanA LR, read-out: MIC90), 2 µg/mL (≈ 4.38 µM); in assay [3] (strain 10, E. faecium VanA LR, read-out: MIC90), 2 µg/mL (≈ 4.38 µM); with Staphylococcus aureus (strain 1, S. aureus, read-out: MIC90) it was 0.5 µg/mL (≈ 1.1 µM); in assay [4] (strain 9, E. faecium VanA, read-out: MIC90), 0.5 µg/mL (≈ 1.1 µM); in [5] (strain 3, S. epidermidis, read-out: MIC90), 0.5 µg/mL (≈ 1.1 µM). Also, the MIC90 with Enterococcus faecium (strain 8, E. faecium, read-out: MIC90) is 0.5 µg/mL (≈ 1.1 µM); in assay [6] (strain 6, E. faecalis VanA, read-out: MIC90), 0.5 µg/mL (≈ 1.1 µM); in assay [7] (strain 4, S. epidermidis MR, read-out: MIC90), 1 µg/mL (≈ 2.19 µM); in the assay with Enterococcus faecalis (strain 5, E. faecalis, read-out: MIC90) it was 0.5 µg/mL (≈ 1.1 µM); in assay [8] (strain 11, E. faecium VanA LR, read-out: MIC90), 2 µg/mL (≈ 4.38 µM).
Turning to `C#CCN1C=NN(c2ccc(-c3ccc(N4C[C@H](CNC(C)=O)OC4=O)cc3F)cn2)CC1` [Compound 55], the MIC90 is 4 µg/mL (≈ 8.88 µM) in [1]; 4 µg/mL (≈ 8.88 µM) in [2]; 4 µg/mL (≈ 8.88 µM) in assay [3]; 1 µg/mL (≈ 2.22 µM) in the assay on Staphylococcus aureus; 2 µg/mL (≈ 4.44 µM) in assay [4]; 2 µg/mL (≈ 4.44 µM) in assay [5]. In addition, the MIC90 in the assay on Enterococcus faecium was found to be 2 µg/mL (≈ 4.44 µM); in assay [6] it was 2 µg/mL (≈ 4.44 µM); in assay [7], 4 µg/mL (≈ 8.88 µM); with Enterococcus faecalis, 1 µg/mL (≈ 2.22 µM); in assay [8], 4 µg/mL (≈ 8.88 µM).
